Experimental data as given in BindingDB's records for doi:10.1021/jm00055a002 (Eli Lilly, 1993).
Where a SMILES comes first, the peptide text is derived from it. [ ]: non-standard residue; d: D form. The star is where a group is joined. dHpg = N[C@@H](C(=O)O)c1ccc(O)cc1; Boc = CC(C)(C)OC(=O)*

target: Tissue-type plasminogen activator (Homo sapiens) (UniProt P00750); test: Compound was tested in vitro for inhibitory activity against t-PA (tissue plasminogen activator)
Sequence (P00750 whole entry, looked up): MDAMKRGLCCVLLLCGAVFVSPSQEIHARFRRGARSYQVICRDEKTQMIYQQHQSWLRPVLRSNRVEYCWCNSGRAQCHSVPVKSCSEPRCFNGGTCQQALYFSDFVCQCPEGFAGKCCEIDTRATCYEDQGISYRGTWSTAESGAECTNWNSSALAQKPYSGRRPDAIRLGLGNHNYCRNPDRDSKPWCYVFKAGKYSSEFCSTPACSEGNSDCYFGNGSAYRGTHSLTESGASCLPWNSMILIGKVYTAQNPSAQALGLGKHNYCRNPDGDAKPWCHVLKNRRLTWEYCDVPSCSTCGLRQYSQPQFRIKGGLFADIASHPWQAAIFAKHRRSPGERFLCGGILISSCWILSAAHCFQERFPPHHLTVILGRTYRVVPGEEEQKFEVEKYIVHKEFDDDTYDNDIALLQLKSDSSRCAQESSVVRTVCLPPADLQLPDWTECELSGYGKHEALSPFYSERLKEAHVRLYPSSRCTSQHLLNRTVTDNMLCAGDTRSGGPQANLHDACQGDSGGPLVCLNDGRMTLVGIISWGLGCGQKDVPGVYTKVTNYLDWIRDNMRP

Structure (SMILES) | IC50 [µM]
CO[C@H](C(=O)N1CCC[C@H]1C(=O)NC(C=O)CCCNC(=N)N)c1ccccc1 (stereo not given in full) [1-(2-Methoxy-2-phenyl-acetyl)-pyrrolidine-2-carboxylic acid (1-formyl-4-guanidino-butyl)-amide] | 860
CN[C@@H](C(=O)N1CCC[C@H]1C(=O)N[C@H](C=O)CCCNC(=N)N)c1ccccc1 [(S)-1-((R)-2-Methylamino-2-phenyl-acetyl)-pyrrolidine-2-carboxylic acid ((S)-1-formyl-4-guanidino-butyl)-amide] | 42
CC(C)(C)OC(=O)NC(C(=O)N1CCC[C@H]1C(=O)NC(C=O)CCCNC(=N)N)c1cccc(C(F)(F)F)c1 (stereo not given in full) [[2-[2-(1-Formyl-4-guanidino-butylcarbamoyl)-pyrrolidin-1-yl]-2-oxo-1-(3-trifluoromethyl-phenyl)-ethyl]-carbamic acid tert-butyl ester] | 15
CC(C)(C)OC(=O)NC(C(=O)N1CCC[C@H]1C(=O)NC(C=O)CCCNC(=N)N)c1ccc(Cl)c(Cl)c1 (stereo not given in full) [{1-(3,4-Dichloro-phenyl)-2-[2-(1-formyl-4-guanidino-butylcarbamoyl)-pyrrolidin-1-yl]-2-oxo-ethyl}-carbamic acid tert-butyl ester] | 31
CC(C)(C)OC(=O)N[C@@H](C(=O)N1CCC[C@H]1C(=O)N[C@H](C=O)CCCN=C(N)N)c1ccc(F)cc1 [{1-(4-Fluoro-phenyl)-2-[2-(1-formyl-4-guanidino-butylcarbamoyl)-pyrrolidin-1-yl]-2-oxo-ethyl}-carbamic acid tert-butyl ester] | 18
CC(C)(C)OC(=O)N[C@H](C(=O)N1CCC[C@H]1C(=O)N[C@H](C=O)CCCN=C(N)N)c1ccc(F)cc1 [{1-(4-Fluoro-phenyl)-2-[2-(1-formyl-4-guanidino-butylcarbamoyl)-pyrrolidin-1-yl]-2-oxo-ethyl}-carbamic acid tert-butyl ester] | 91
CC(C)(C)OC(=O)N[C@@H](C(=O)N1CCC[C@H]1C(=O)NC(C=O)CCCNC(=N)N)c1cccc2ccccc12 (stereo not given in full) [{2-[2-(1-Formyl-4-guanidino-butylcarbamoyl)-pyrrolidin-1-yl]-1-naphthalen-1-yl-2-oxo-ethyl}-carbamic acid tert-butyl ester] | 20
CC(C)(C)OC(=O)N[C@@H](C(=O)N1CCC[C@H]1C(=O)NC(C=O)CCCNC(=N)N)c1ccc2ccccc2c1 (stereo not given in full) [{2-[2-(1-Formyl-4-guanidino-butylcarbamoyl)-pyrrolidin-1-yl]-1-naphthalen-2-yl-2-oxo-ethyl}-carbamic acid tert-butyl ester] | 12

target: Tissue-type plasminogen activator (Homo sapiens) (UniProt P00750); test: Inhibitory activity against tissue-type plasminogen activator

Structure (SMILES) | IC50 [µM]
N=C(N)NCCC[C@@H](C=O)NC(=O)[C@@H]1CCCN1C(=O)C1CCc2ccccc2N1 (stereo not given in full) [1-(1,2,3,4-Tetrahydro-quinoline-2-carbonyl)-pyrrolidine-2-carboxylic acid (1-formyl-4-guanidino-butyl)-amide] | 660
CC(C)(C)OC(=O)N[C@@H](C(=O)N1CCC[C@H]1C(=O)N[C@H](C=O)CCCN=C(N)N)c1ccc(O)cc1 [[2-[2-(1-Formyl-4-guanidino-butylcarbamoyl)-pyrrolidin-1-yl]-1-(4-hydroxy-phenyl)-2-oxo-ethyl]-carbamic acid tert-butyl ester] (Boc-[dHpg]-Pro-Arg-aldehyde) | 16
